Assay results published in patent US4591551A, “Radioenzymatic method for assaying normetanephrine and octopamine” (University of Southern California, priority 1984, dated 1986).

Legend:
[1] = molecular target: T1, phenylethanolamine-N-methyl transferase (Bos taurus, UniProt P10938); experiment: Substrate specificity: cross reactivities of catecholamines and congeners in the radioenzymatic assay for plasma normetanephrine; type: biochemical, bovine; conditions: for % / Counts per Minute, Sample: 500 pg of amine added; for %: sample counts; for Counts per Minute, Sample: without normetanephrine internal standard, metanephrine band after TLC; for Percentage Interference: 500 pg of amine in assay for plasma normetanephrine; for Counts per Minute, Normetanephrine Standard: 500 pg of amine plus 250 pg of normetanephrine; for Normetanephrine: apparent normetanephrine from 500 pg of amine, calculated using 250 pg in the formula
T1 construct: PNMT was partially purified from bovine adrenal medulla; from tissue; host or cells: bovine adrenal medulla
T1 sequence (P10938 1-283): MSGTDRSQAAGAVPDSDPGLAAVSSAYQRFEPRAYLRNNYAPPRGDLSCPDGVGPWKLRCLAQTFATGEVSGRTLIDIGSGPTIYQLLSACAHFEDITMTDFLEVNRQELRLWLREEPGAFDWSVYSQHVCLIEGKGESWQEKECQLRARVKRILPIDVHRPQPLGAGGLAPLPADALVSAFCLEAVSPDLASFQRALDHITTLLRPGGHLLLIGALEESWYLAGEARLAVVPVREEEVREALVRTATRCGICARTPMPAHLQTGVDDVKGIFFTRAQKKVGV
Method: (§1) PNMT was partially purified from bovine adrenal medulla according to the method of Henry et al, supra. In accordance with that procedure, thirty-three grams of medullary tissue are dissected from 15 fresh bovine adrenals and homogenized in 280 ml of 1.19 percent KCl solution. The homogenate is centrifuged at 40,000 g for one hour and the supernatant is filtered and recentrifuged at 100,000 g for one hour. To 250 ml of the supernatant are added 5 ml of 0.05M sodium phosphate buffer, pH 7.5 and 44 gm of solid ammonium sulfate. Another 19.8 gm of ammonium sulfate per 100 ml are added. The supernatant is discarded and the precipitate resuspended in 100 ml of 55 percent saturated ammonium sulfate--0.0125M sodium phosphate. The solution is recentrifuged and for each 100 ml of supernatant, 17 gm of ammonium sulfate are added. After centrifugation, the precipitate is resuspended in 50 ml of 0.005M tris, pH 7.4, containing 0.1 mM dithiothreitol and dialyzed in four liters of the buffer with four changes in a 16 hour period. The dialyzed enzyme is then centrifuged at 40,000 g for 10 minutes and frozen in small aliquots.
Duplicate aliquots (20-50 microliters) of the processed specimens were transferred to disposable culture tubes (13×100 mm); 10 ul of deionized water was added to one and the same volume of normetanephrine standard solution (100 pm) was added to the other. Two tubes of 50 microliters of 0.001N NCl were used for blanks instead of plasma for each assay run. The enzymatic reaction was initiated by the addition of a mixture of 10 ul each of 0.5M tris-HCl with 12.5 mM EDTA (pH 10.0), diluted tritiated […] (SAM-H^3 at 1.25 microCurie) and phenylethanolamine-N-methyl transferase prepared as above. The pH of the incubation mixture was 9.2. The incubation was carried out for sixty minutes at 37° C. and terminated by cooling in an ice bath and the addition of 100 ul of 0.5M borate buffer (pH 10.0) containing 5 micromole of metanephrine to facilitate the location of chromotography bands.
Radioactive products were extracted into 3 ml of toluene isoamyl-alcohol mixture (3:2) by agitation on a vortex mixer. The organic layer was separated by centrifugation, transferred to another set of tubes after quick freezing of the aqueous layer in a dry ice acetone bath and subsequently washed by 50 microliter of 0.5M borate buffer (pH 10.0) with similar procedures. Then the organic layer was transferred to a 15 ml centrifuge tube and the N-methylated products were back-extracted to 130 microliter of 0.1N acetic acid. After centrifugation, the organic layer was aspirated off and 100 microliter of the acetic acid phase was spotted on a silica gel plate with a multiple spotter. Thin layer chromatography was carried out in the chamber using as a developing solvent a mixture of tertiary amyl-alcohol, methylamine (40%), benzene (6:3:2, total 73.5 ml) for ninety minutes, in accordance with the procedure of Peuler and Johnson, supra. Then the plate was dried immediately. The metanephrine spot was marked under ultraviolet light, scraped off with a knife and transferred to a plastic vial containing 1 ml of 1N NH4 OH. Ten mls of ScintiVerse (obtained from the Fisher Scientific Co.) was added and the vial was left to stand for at least one hour prior to counting in a liquid scintillation counter. The plasma normetanephrine concentration was calculated from the radioactivity according to the formula given above.
Assays were conducted as in Example I using the solvent system of that example but in which the sample contained 250 pg of normetanephrine and in which there was added to the incubation mixture in individual tubes 10 microliters of the respective reagent listed in Table II.

[2] = system: PNMT; experiment: Isomer preference of normetanephrine as substrate for PNMT; type: biochemical, bovine; conditions: vs dl-normetanephrine
Method: as §1
1-Normetanephrine is the preferred isomer as a substrate for PNMT and yielded about 1.5 times the activity of dl-normetanephrine. Thus, 1-normetanephrine should be used for calibration.

[3] = molecular target: T1, phenylethanolamine-N-methyl transferase; experiment: Radioenzymatic assay of octopamine in urine (counted as synephrine); type: biochemical, bovine
Method: The procedure of Examples I and II can be repeated but with the addition of 100 pg of octopamine in place of the 100 pg of normetanephrine as an internal standard, and by the addition of 5 micromole of unlabeled synephrine in place of the 5 micromole of metanephrine to facilitate chromatography band location. The pH of the incubation mixture is 9.3. The solvent system used is chloroform-ethanol-methylamine (40%) 16:3:2. In this case, synephrine bands are scraped into the scintillation vial and their counts per minute determined to yield the amount of octopamine, as synephrine.
A linear relationship was shown when octopamine was added either to urine or to water at 3-500 pg. Similarly, a linear relation was observed when both the synephrine and dimethyloctopamine were counted together after thin layer chromatography. These findings indicate that methylation of synephrine is proportioned to the added amount of octopamine and therefore validates the measurement of octopamine with this assay. When the synephrine was recovered from thin layer chromatography, it yielded a lower blank and therefore increased sensitivity. […] An additional wash with borate buffer (pH 10) and the use of chloroform-ethanol-methylamine as developing solvents further reduced the blank to a mean value of 56±7 cpm (N=13). Two and one-half octopamine in urine yields about 120-140 cpm. […]

[4] = type: physicochemical
Method: Blood specimens were collected into commercial vactainer tubes containing 15 milligrams EDTA for 10 ml of blood and placed on ice immediately. After centrifugation at 4° C., exactly 1 ml of plasma was transferred to a 10 ml test tube and kept in the freezer at -20° C. until the assay was performed. In this condition, plasma normetanephrine is stable for at least 2 months.

counts yielded by octopamine in urine ([3]; One hundred pg of octopamine in urine) | counts yielded by octopamine in urine ([3]; Two and one-half octopamine in urine) | SMILES | % [1] [%] | Counts per Minute, Sample [1] [Counts per Minute] | Percentage Interference [1] [%] | Counts per Minute, Normetanephrine Standard [1] [Counts per Minute] | Normetanephrine [1] [pg] | activity as substrate for PNMT relative to dl-normetanephrine [2] | plasma normetanephrine is stable [4]
– | – | NC[C@H](O)c1ccc(O)c(O)c1 [Norepinephrine, norepinephrine] | 1.6 | 101 | 0.1 | 6020 | 0.6 | – | –
– | – | CNCC(O)c1ccc(O)cc1 (stereo not drawn) [Synephrine, synephrine] | 4.2 | 262 | 1.5 | 6160 | 7.5 | – | –
– | – | NCCc1ccc(O)c(O)c1 [Dopamine, dopamine] | 1.3 | 80 | 0 | 6130 | 0 | – | –
– | – | CNCC(O)c1ccc(O)c(OC)c1 (stereo not drawn) [Metanephrine, metanephrine] | 2.9 | 180 | 0.7 | 6363 | 3.8 | – | –
– | – | COc1cc([C@@H](O)CN)ccc1O [1-Normetanephrine] | – | – | – | – | – | about 1.5 times | –
– | – | CNC[C@H](O)c1ccc(O)c(O)c1 [Epinephrine, epinephrine] | 1.3 | 80 | 0 | 6124 | 0 | – | –
2,500-3,000 cpm | 120-140 cpm | NCC(O)c1ccc(O)cc1 (stereo not drawn) [Octopamine, octopamine] | 11.8 | 726 | 4.9 | 7261 | 24.5 | – | –
– | – | COc1cc(C(O)CN)ccc1O (stereo not drawn) [Normetanephrine, normetanephrine] | – | – | – | – | – | – | at least 2 months
– | – | NCCc1ccc(O)cc1 [Tyramine, tyramine] | 1.3 | 81 | 0 | 6090 | 0 | – | –
